Measured values from patent US20130096100A1, “DI(ARYLAMINO)ARYL COMPOUND” (ASTELLAS PHARMA INC., priority 2007, published 2013).

Columns and labels:
MUSK = biological target: T1, MUSK (Homo sapiens, UniProt O15146); experiment: Inhibitory activity against the kinase activity of MUSK protein (Test Example 7); format: biochemical; set-up: purchased Carna Biosciences Inc., Japan; details: ATP 10 μM, reaction 1 hour, HTRF KinEASE-TK
T1 sequence (O15146 24-869): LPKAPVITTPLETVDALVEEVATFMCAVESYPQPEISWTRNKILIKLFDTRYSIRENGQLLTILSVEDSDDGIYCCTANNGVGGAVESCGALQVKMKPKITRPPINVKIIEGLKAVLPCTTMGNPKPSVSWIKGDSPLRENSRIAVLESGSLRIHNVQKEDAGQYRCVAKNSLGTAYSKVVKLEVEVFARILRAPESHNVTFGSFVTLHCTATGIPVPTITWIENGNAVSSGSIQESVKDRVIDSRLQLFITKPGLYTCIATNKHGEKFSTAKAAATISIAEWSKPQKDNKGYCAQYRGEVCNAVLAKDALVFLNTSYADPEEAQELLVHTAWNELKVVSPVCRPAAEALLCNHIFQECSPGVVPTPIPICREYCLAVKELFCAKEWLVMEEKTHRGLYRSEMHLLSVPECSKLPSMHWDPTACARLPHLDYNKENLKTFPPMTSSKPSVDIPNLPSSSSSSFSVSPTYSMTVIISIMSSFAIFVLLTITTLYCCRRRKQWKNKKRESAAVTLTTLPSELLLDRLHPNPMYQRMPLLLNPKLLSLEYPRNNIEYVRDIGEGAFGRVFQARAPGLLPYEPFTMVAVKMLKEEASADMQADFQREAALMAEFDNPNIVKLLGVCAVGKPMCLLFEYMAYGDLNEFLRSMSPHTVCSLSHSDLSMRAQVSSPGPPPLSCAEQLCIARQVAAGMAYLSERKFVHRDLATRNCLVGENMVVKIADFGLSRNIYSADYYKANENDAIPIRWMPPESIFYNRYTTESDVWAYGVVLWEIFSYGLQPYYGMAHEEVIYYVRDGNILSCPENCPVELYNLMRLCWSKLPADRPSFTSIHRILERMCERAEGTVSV
Experimental: MUSK protein (Carna Biosciences Inc., Japan) was investigated for its phosphorylation activity toward a peptide substrate by using a kinase activity detection kit (HTRF KinEASE-TK; Cisbio Inc.). […] The ATP concentration used was 10 μM. Another reaction solution was prepared to contain the enzyme protein but no test compound (in which the solvent DMSO alone was added at 0.4% in place of the test compound), followed by reaction in the same manner with or without ATP addition. […] The concentration causing 50% inhibition (IC50) was calculated for each test compound by the logistic regression method.

[1] = biological target: T2, Mutant EGFR (L858R) protein (Homo sapiens, UniProt P00533, L858R); experiment: Inhibitory activity against the kinase activity of mutant EGFR (L858R) protein (Test Example 2); format: biochemical; details: ATP 5 μM, reaction 1 hour, HTRF KinEASE-TK
T2 construct: purchased Cana Biosciences Inc., Japan (sic; Carna Biosciences)
T2 sequence (P00533 25-1210 L858R): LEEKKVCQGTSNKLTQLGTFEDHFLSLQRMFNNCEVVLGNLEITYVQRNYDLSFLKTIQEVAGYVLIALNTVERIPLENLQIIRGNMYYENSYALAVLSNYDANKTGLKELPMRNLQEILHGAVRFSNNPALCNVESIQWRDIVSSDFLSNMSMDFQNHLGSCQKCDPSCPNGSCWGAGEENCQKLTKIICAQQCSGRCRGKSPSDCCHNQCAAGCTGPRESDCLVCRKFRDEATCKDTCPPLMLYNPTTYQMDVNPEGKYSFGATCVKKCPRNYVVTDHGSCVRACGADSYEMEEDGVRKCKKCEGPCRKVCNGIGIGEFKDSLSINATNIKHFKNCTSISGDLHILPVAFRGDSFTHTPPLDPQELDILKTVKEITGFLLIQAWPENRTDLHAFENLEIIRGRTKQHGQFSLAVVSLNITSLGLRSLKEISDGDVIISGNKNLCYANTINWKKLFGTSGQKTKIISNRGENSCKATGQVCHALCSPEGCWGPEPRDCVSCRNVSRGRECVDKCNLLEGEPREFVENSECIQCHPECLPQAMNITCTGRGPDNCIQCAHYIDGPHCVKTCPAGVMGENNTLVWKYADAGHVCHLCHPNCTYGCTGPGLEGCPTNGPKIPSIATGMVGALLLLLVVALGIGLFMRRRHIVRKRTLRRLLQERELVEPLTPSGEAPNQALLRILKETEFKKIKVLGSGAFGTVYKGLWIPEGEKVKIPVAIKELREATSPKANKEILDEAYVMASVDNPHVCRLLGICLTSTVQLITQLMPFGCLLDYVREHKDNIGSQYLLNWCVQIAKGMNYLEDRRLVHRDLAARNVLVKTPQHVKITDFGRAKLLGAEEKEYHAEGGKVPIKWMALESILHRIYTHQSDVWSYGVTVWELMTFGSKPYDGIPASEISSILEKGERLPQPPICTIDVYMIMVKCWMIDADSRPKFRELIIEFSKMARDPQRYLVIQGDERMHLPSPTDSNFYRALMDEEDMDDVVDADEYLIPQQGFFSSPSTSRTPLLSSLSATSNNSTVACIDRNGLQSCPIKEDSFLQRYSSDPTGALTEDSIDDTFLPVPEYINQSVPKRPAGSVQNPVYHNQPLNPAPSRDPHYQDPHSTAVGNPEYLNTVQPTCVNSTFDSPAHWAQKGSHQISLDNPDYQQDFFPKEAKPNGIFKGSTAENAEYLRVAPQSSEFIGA
Experimental: The ATP concentration used was 5 μM. Another reaction solution was prepared to contain the enzyme protein but no test compound (in which the solvent DMSO alone was added at 0.4% in place of the test compound), followed by reaction in the same manner with or without ATP addition. […] The concentration causing 50% inhibition (IC50) was calculated for each test compound by the logistic regression method.

NCI-H2228 cells (tumor) = experiment: Antitumor test (in vivo) on NCI-H2228 cells (Test Example 8); details: oral 3 mg/kg once a day for 14 days, NOD/SCID mice; tumor volume
Experimental: 3×10^6 cells of NCI-H2228 cells suspended in PBS were inoculated subcutaneously by injection to the back of 5 weeks old male NOD/SCID mice (Charles River Japan, Inc.). After 3 weeks of the inoculation, the administration of test compounds was initiated. The test was conducted in the solvent group and test compound groups, 6 animals per group. The test compounds were each dissolved in a solvent composed of 10% 1-methyl-2-pyrrolidinone (SIGMA-ALDRICH Inc.)/90% polyethylene glycol 300 (Fluka Inc.) and administered orally at a dose of 3 mg/kg. Administrations were performed once a day for 14 days, and body weight and tumor size were measured every other day. Tumor volume was calculated using the following formula.
[Tumor volume (mm^3)]=[Tumor major axis (mm)]×[tumor minor axis (mm)]^2×0.5

[2] = biological target: T3, EML4-ALK fusion protein v1 (Homo sapiens, UniProt Q9UM73, D1529E/I1461V/K1491R); experiment: Inhibitory activity against the kinase activity of EML4-ALK fusion protein v1 (Test Example 1); format: biochemical; details: ATP 100 μM, reaction 1 hour, HTRF KinEASE-TK
T3 construct: FLAG (N); made in house
T3 sequence (Q9UM73 with tags, fused parts or gaps I1461V/K1491R/D1529E): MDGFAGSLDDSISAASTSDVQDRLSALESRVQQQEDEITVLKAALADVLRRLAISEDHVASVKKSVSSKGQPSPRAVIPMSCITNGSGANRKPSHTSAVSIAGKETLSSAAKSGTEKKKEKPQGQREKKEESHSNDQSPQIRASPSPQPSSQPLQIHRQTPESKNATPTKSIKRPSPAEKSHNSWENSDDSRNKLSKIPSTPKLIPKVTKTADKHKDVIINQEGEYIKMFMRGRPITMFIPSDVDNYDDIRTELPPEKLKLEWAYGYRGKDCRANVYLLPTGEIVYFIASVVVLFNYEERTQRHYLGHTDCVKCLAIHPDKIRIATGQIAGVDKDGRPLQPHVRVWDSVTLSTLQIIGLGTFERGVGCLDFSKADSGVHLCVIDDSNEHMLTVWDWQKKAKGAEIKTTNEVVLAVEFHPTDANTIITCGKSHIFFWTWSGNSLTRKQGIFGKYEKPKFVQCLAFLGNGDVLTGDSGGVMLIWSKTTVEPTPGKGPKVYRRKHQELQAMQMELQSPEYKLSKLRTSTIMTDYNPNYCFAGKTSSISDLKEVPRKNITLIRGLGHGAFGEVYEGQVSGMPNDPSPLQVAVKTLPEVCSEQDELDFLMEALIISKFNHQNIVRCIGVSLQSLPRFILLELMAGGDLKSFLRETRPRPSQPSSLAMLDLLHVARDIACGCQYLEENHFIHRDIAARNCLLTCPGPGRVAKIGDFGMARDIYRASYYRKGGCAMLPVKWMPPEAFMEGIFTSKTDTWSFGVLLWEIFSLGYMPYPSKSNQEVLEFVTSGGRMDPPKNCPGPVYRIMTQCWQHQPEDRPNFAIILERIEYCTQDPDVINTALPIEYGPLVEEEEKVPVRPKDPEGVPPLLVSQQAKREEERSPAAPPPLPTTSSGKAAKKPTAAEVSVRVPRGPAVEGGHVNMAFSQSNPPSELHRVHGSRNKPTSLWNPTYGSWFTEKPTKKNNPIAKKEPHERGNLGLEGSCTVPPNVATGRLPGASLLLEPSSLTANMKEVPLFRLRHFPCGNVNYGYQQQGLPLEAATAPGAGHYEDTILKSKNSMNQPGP

SMILES | IC50 (MUSK) | IC50 [1] | inhibition of the growth of NCI-H2228 cells (tumor) (NCI-H2228 cells (tumor)) | IC50 [2]
COc1cc(N2CCC(N3CCN(C)CC3)CC2)ccc1Nc1ncnc(Nc2ccccc2S(=O)(=O)C(C)C)n1 [Example 23] | 1500 nM | 120 nM | 116% | 17 nM
CCNS(=O)(=O)c1ccccc1Nc1ncnc(Nc2ccc(N3CCC(N4CCN(C)CC4)CC3)cc2OC)n1 [Example 123] | 1100 nM | 100 nM | 108% | 33 nM
